This is an account of results in patent publication US20250314644A1, “METHODS COMPRISING DETECTION OF ADP-HEPTOSE” (CHILDREN'S HOSPITAL MEDICAL CENTER, priority 2023, published 2025).

The test system of one experiment is healthy BM cells. The experiment can be described thus: Xenograft of healthy cells in NSG mice treated with ADP-heptose. Format: in vivo, human. The following applies: immunocompromised mice. On the procedure: (§1) NOD.Cg-Prkdc^scidIl2rg^tm1Wj1/SzJ (NSG)^75 were bred and maintained by the CCHMC Comprehensive Mouse Core. For patient derived xenografts, NSG mice (sub-lethally conditioned with 2 Gy of whole-body irradiation) were injected tail vein with healthy CD34+ cells (1×10^6 cells per mouse) and MDS patient cells (5×10^6 cells per mouse) in 200 μl of sterile PBS. Mice were then given sterile water or ADP-heptose (0.5 mg/kg) dissolved in sterile water at the indicated times. Mice were monitored for human engraftment in BM aspirates Briefly, 1×10^6 BM cells from each sample were incubated with huCD45 (Cat no. 555485, BDPharmingen) and huCD33 (Cat no. 555450, BDPharmingen) antibodies diluted 1:100 in a solution of PBS, 0.2% FBS for 30 minutes on ice. Cells were washed once with PBS, resuspended in PBS with 0.2% FBS, and immediately analyzed by flow cytometry.
For orientation: Xenograft models place foreign cells or tissue in a host animal.

Another experiment has as its system Dnmt3a^−/− HSCs. Description: Serial colony replating. Format: cell-based, mouse. The following applies: compared to vehicle. As to the method: (§2) (A) Heatmap representing gene expression analysis of HSPCs isolated from Dnmt3a^WT or Dnmt3a^KO or Dnmt3a^KO; Alpk1^KO mice treated with either H2O or ADP-heptose for 90 minutes in vitro as determined by RNA-sequencing from three independent replicates (1.5 fold; P<0.05). (B) Gene Set Enrichment Analysis (GSEA) of Dnmt3a^KO cells treated with ADP-heptose versus H2O. […] NES, normalized enrichment score. Absolute enrichment score (ES) and corresponding P value are shown for each pathway. (D) Enrichment of transcription factors was determined with the ENCODE and CHIP Enrichment Analysis (ChEA) libraries using genes that are overexpressed in ADP-heptose-stimulated Dnmt3a^WT versus H2O-stimulated Dnmt3a^WT (left panel) or ADP-heptose-stimulated Dnmt3a^KO versus H2O-stimulated Dnmt3a^KO HSPCs (right panel). (E) Representative flow cytometric profile of EdU+HSCs after ADP-heptose or H2O treatment. […] In each plating, colonies were scored at day 14. […] (L) Colony forming potential of Dnmt3a^WT or Dnmt3a^KO HSPCs was evaluated upon treatment with either vehicle, ADP-heptose, or ADP-heptose and UBE2N inhibitor. (M) CD34+ MDS BM and normal CD34+ BM cells treated with vehicle, ADP-heptose, or ADP-heptose and UBE2N inhibitor were evaluated for colony formation in methylcellulose. […]

Experiment [1] relates to Dnmt3a; Alpk1 deficient HSCs. The experiment can be described thus: Serial colony replating. Format: cell-based, mouse. On the procedure:
as §2

Experiment [2] relates to Dnmt3a^−/−; Alpk1^−/− HSPCs. The experiment can be described thus: NF-κB activation in vitro (immunoblot). It is filed as cell-based, mouse. On the technique in general: Immunoblotting shows a protein as a band on a membrane.
Experiment [3] has as its system Dnmt3a^−/− HSCs relative to WT HSCs. The experiment can be described thus: In vitro HSC competition assay. The following applies: co-culture, ADP-heptose for 14 days. It is filed as cell-based, mouse. The text has this:
The polyvinyl alcohol-based in vitro HSC expansion protocol was adapted as previously described. (Wilkinson, A. C., et al. Long-term ex vivo haematopoietic-stem-cell expansion allows nonconditioned transplantation. Nature 571, 117-121 (2019) and Wilkinson, A. C., Ishida, R., Nakauchi, H. & Yamazaki, S. Long-term ex vivo expansion of mouse hematopoietic stem cells. Nat Protoc 15, 628-648 (2020).) 50 HSCs from WT-GFP (C57BL/6-Tg(UBC-GFP)30Scha/J, Cat no. 004353, Jackson Labs) and 50 HSCs from Dnmt3a^−/− mice were sorted directly into each well of a fibronectin-coated 96-well plate (Cat no. 08-774-60, Fisher Scientific) with Ham's F12 nutrient mix media (Cat no. 11765054, Thermo Fisher Scientific) containing final concentrations of 1× penicillin-streptomycin-glutamine (Cat no. 10378-016, Thermo Fisher Scientific), 10 mM HEPES (Cat no. 15630080, Thermo Fisher Scientific), 1× insulin-transferrin-selenium-ethanolamine (ITS-X, Cat no. 51500056, Thermo Fisher Scientific), 100 ng/mL recombinant murine TPO (Cat no. […] After 14 days of ADP-heptose treatment, cells were harvested, counted by trypan blue exclusion assay, and analyzed by flow cytometry. To enumerate cells, a defined number of CountBright Absolute Counting Beads (Thermo Fisher Scientific, Cat no. C36950) were added to each sample and cell count was back calculated to the proportion of the total that were run through the cytometer.

In another experiment the test system is MDS BM cells. Description: Patient derived xenograft in NSG mice treated with ADP-heptose. The following applies: immunocompromised mice, after 28 days. It is filed as in vivo, human. On the procedure: as §1

On to `Nc1ncnc2c1ncn2[C@@H]1O[C@H](COP(=O)(O)OP(=O)(O)O[C@@H]2O[C@H]([C@H](O)CO)[C@@H](O)[C@H](O)[C@@H]2O)[C@@H](O)[C@H]1O` [ADP-heptose, ADP-D-glycero-β-D-manno-heptose], for which the “engraftment of healthy BM cells” value in the experiment with healthy BM cells was “no effect”. Moreover, the serial colony formation result in the experiment with Dnmt3a^−/− HSCs was “significantly increased serial colony formation”. The “colony replating response to ADP-heptose” value in experiment [1] is “did not respond”. In addition, in experiment [2], the “NF-κB activation upon ADP-heptose stimulation” value was “unable to activate NF-κB”. For the same molecule, the “in vitro competition of Dnmt3a^−/− HSCs relative to WT HSCs” value in experiment [3] is given as “competitive advantage”. The “expansion of xenografted MDS BM cells” value in the experiment with MDS BM cells is listed as “expanded”.
